HELM strings list units from the 5' end as sugar, base in round brackets, then linkage (d deoxyribose, r ribose, m 2'-O-methyl, p phosphodiester). Strings are as the collection lists them, not checked against the first reports. ss, as = sense and antisense strand; [lna] = locked nucleic acid (LNA); [una] = unlocked nucleic acid; [hna] = hexitol nucleic acid; [s4r] = 4'-thioribose; [fl2r] = 2'-fluoro
Settings: siRNA
Note: test system not given here.

RNA1{r(C)p.r(G)p.r(U)p.r(A)p.r(C)p.r(G)p.r(C)p.r(G)p.r(G)p.r(A)p.r(A)p.r(U)p.r(A)p.[s4r](C)p.[s4r](U)p.[s4r](U)p.[s4r](C)p.[s4r](G)p.[s4r](A)p.r(T)p.r(T)}|RNA2{r(U)p.r(C)p.r(G)p.r(A)p.r(A)p.r(G)p.r(U)p.r(A)p.r(U)p.r(U)p.r(C)p.r(C)p.r(G)p.r(C)p.r(G)p.r(U)p.r(A)p.r(C)p.r(G)p.r(T)p.r(T)}$$$RNA1{StrandType:ss}|RNA2{StrandType:as}$
target mRNA knockdown: 93.8%

RNA1{m(A)p.r(A)p.m(C)p.r(A)p.m(G)p.r(C)p.m(C)p.r(U)p.m(U)p.r(A)p.m(C)p.r(C)p.m(C)p.r(C)p.m(G)p.r(A)p.m(U)p.r(U)p.m(C)p.r(T)p.r(T)}|RNA2{r(G)p.m(A)p.m(A)p.r(U)p.r(C)p.r(G)p.r(G)p.r(G)p.r(G)p.r(U)p.m(A)p.m(A)p.r(G)p.r(G)p.r(C)p.r(U)p.r(G)p.r(U)p.r(U)p.r(T)p.r(T)}$$$RNA1{StrandType:ss}|RNA2{StrandType:as}$
target mRNA knockdown: 32%

RNA1{m(A)p.m(A)p.r(C)p.r(C)p.r(C)p.m(A)p.r(C)p.r(C)p.m(A)p.r(C)p.m(A)p.r(G)p.r(C)p.m(U)p.m(A)p.r(G)p.m(A)p.m(A)p.r(C)p.m(U)p.m(U)}|RNA2{r(A)p.r(A)p.r(G)p.r(U)p.r(U)p.r(C)p.r(U)p.r(A)p.r(G)p.r(C)p.r(U)p.r(G)p.r(U)p.r(G)p.r(G)p.r(U)p.r(G)p.r(G)p.r(G)p.r(U)p.r(U)}$$$RNA1{StrandType:ss}|RNA2{StrandType:as}$
target mRNA knockdown: 51%

RNA1{m(A)p.r(G)p.m(U)p.r(U)p.m(A)p.r(A)p.m(C)p.r(C)p.m(C)p.r(G)p.m(G)p.r(G)p.m(A)p.r(C)p.m(U)p.r(U)p.m(G)p.r(G)p.m(A)p.r(T)p.r(T)}|RNA2{r(U)p.r(C)p.r(C)p.r(A)p.r(A)p.m(G)p.r(U)p.r(C)p.r(C)p.r(C)p.m(G)p.m(G)p.m(G)p.r(U)p.r(U)p.r(A)p.r(A)p.r(C)p.r(U)p.r(T)p.r(T)}$$$RNA1{StrandType:ss}|RNA2{StrandType:as}$
target mRNA knockdown: 45%

RNA1{m(A)p.r(G)p.m(A)p.r(G)p.m(A)p.r(G)p.m(G)p.r(U)p.m(G)p.r(G)p.m(A)p.r(G)p.m(G)p.r(U)p.m(A)p.r(U)p.m(C)p.r(U)p.m(C)p.r(T)p.r(T)}|RNA2{r(G)p.r(A)p.r(G)p.r(A)p.r(U)p.r(A)p.r(C)p.r(C)p.r(U)p.r(C)p.r(C)p.m(A)p.r(C)p.r(C)p.r(U)p.m(C)p.r(U)p.m(C)p.r(U)p.r(T)p.r(T)}$$$RNA1{StrandType:ss}|RNA2{StrandType:as}$
target mRNA knockdown: 67%

RNA1{r(G)p.r(A)p.r(G)p.r(A)p.r(G)p.r(A)p.r(G)p.r(A)p.r(C)p.r(G)p.r(G)p.m(U)p.m(G)p.r(G)p.r(A)p.r(A)p.r(G)p.r(A)p.r(A)p.r(T)p.r(T)}|RNA2{r(U)p.r(U)p.r(C)p.r(U)p.r(U)p.r(C)p.m(C)p.r(A)p.r(C)p.r(C)p.r(G)p.r(U)p.r(C)p.r(U)p.r(C)p.r(U)p.r(C)p.r(U)p.r(C)p.r(T)p.r(T)}$$$RNA1{StrandType:ss}|RNA2{StrandType:as}$
target mRNA knockdown: 72%

RNA1{r(C)p.r(U)p.r(U)p.r(A)p.r(C)p.r(G)p.r(C)p.r(U)p.r(G)p.r(A)p.r(G)p.r(U)p.r(A)p.r(C)p.r(U)p.r(U)p.r(C)p.r(G)p.r(A)p.r(T)p.r(T)}|RNA2{r(T)p.r(C)p.r(G)p.r(A)p.r(A)p.r(G)p.r(U)p.r(A)p.r(C)p.r(U)p.r(C)p.r(A)p.r(G)p.r(C)p.r(G)p.r(U)p.r(A)p.r(A)p.[lna](G)p.[lna](T)p.[lna](T)}$$$RNA1{StrandType:ss}|RNA2{StrandType:as}$
target mRNA knockdown: 92%

RNA1{[s4r](A)p.[s4r](A)p.[s4r](A)p.[s4r](C)p.r(A)p.r(U)p.r(G)p.r(C)p.r(A)p.r(G)p.r(A)p.r(A)p.r(A)p.r(A)p.r(U)p.[s4r](G)p.[s4r](C)p.[s4r](U)p.[s4r](G)p.r(T)p.r(T)}|RNA2{r(C)p.r(A)p.r(G)p.r(C)p.r(A)p.r(U)p.r(U)p.r(U)p.r(U)p.r(C)p.r(U)p.r(G)p.r(C)p.r(A)p.r(U)p.r(G)p.r(U)p.r(U)p.r(U)p.r(T)p.r(T)}$$$RNA1{StrandType:ss}|RNA2{StrandType:as}$
target mRNA knockdown: 79.1%

RNA1{r(G)p.r(A)p.r(C)p.r(G)p.[hna](U)p.r(A)p.r(A)p.[hna](A)p.r(C)p.r(G)p.[hna](G)p.r(C)p.r(C)p.[hna](A)p.r(C)p.r(A)p.r(A)p.r(G)p.r(U)p.r(U)p.d(T)}|RNA2{r(A)p.r(C)p.[lna](T)p.r(U)p.r(G)p.[lna](T)p.r(G)p.r(G)p.r(C)p.r(C)p.r(G)p.r(U)p.r(U)p.[lna](T)p.r(A)p.r(C)p.r(G)p.[lna](T)p.r(C)p.[lna](G)p.[lna](C)}$$$RNA1{StrandType:ss}|RNA2{StrandType:as}$
target mRNA knockdown: 8.9%

RNA1{[fl2r](C)p.r(A)p.r(G)p.[fl2r](C)p.r(A)p.r(A)p.r(A)p.[fl2r](C)p.[fl2r](C)p.r(A)p.[fl2r](C)p.r(G)p.r(A)p.[fl2r](U)p.[fl2r](C)p.r(A)p.r(A)p.[fl2r](U)p.r(A)p.r(T)p.r(T)}|RNA2{[fl2r](U)p.r(A)p.[fl2r](U)p.[fl2r](U)p.r(G)p.r(A)p.[fl2r](U)p.[fl2r](C)p.r(G)p.[fl2r](U)p.r(G)p.r(G)p.[fl2r](U)p.[fl2r](U)p.[fl2r](U)p.r(G)p.[fl2r](C)p.[fl2r](U)p.r(G)p.r(T)p.r(T)}$$$RNA1{StrandType:ss}|RNA2{StrandType:as}$
target mRNA knockdown: 71%

RNA1{r(C)p.r(U)p.r(U)p.r(A)p.r(C)p.r(G)p.r(C)p.r(U)p.r(G)p.r(A)p.r(G)p.r(U)p.r(A)p.r(C)p.r(U)p.r(U)p.r(C)p.r(G)p.r(A)p.r(T)p.r(T)}|RNA2{r(U)p.r(C)p.r(G)p.r(A)p.r(A)p.r(G)p.r(U)p.r(A)p.r(C)p.r(U)p.r(C)p.r(A)p.r(G)p.r(C)p.[lna](G)p.r(U)p.r(A)p.r(A)p.r(G)p.r(T)p.r(T)}$$$RNA1{StrandType:ss}|RNA2{StrandType:as}$
target mRNA knockdown: 85%

RNA1{r(U)p.r(G)p.r(A)p.r(G)p.r(A)p.r(G)p.r(A)p.r(A)p.r(A)p.r(G)p.r(C)p.r(A)p.r(C)p.r(A)p.r(G)p.r(A)p.r(A)p.r(A)p.r(A)p.r(T)p.r(T)}|RNA2{[lna](T)p.r(U)p.r(U)p.r(U)p.r(C)p.r(U)p.r(G)p.r(U)p.r(G)p.r(C)p.r(U)p.r(U)p.r(U)p.r(C)p.r(U)p.r(C)p.r(U)p.r(C)p.r(A)p.[lna](T)p.[lna](T)}$$$RNA1{StrandType:ss}|RNA2{StrandType:as}$
target mRNA knockdown: 45%

RNA1{r(U)p.m(U)p.r(A)p.r(A)p.r(G)p.r(G)p.r(A)p.r(G)p.r(A)p.r(A)p.r(G)p.r(C)p.m(U)p.r(G)p.r(A)p.r(C)p.r(G)p.r(G)p.r(C)p.r(T)p.r(T)}|RNA2{r(G)p.r(C)p.r(C)p.r(G)p.r(U)p.m(C)p.r(A)p.r(G)p.r(C)p.r(U)p.r(U)p.r(C)p.r(U)p.r(C)p.r(C)p.r(U)p.m(U)p.r(A)p.r(A)p.r(T)p.r(T)}$$$RNA1{StrandType:ss}|RNA2{StrandType:as}$
target mRNA knockdown: 67%

RNA1{r(U)p.r(C)p.r(C)p.r(C)p.r(U)p.r(U)p.r(C)p.r(C)p.r(A)p.r(C)p.r(C)p.r(G)p.r(C)p.r(C)p.r(A)p.m(U)p.r(A)p.r(U)p.r(U)p.r(T)p.r(T)}|RNA2{r(A)p.r(A)p.m(U)p.r(A)p.r(U)p.r(G)p.r(G)p.r(C)p.r(G)p.r(G)p.r(U)p.r(G)p.r(G)p.r(A)p.r(A)p.r(G)p.r(G)p.r(G)p.r(A)p.r(T)p.r(T)}$$$RNA1{StrandType:ss}|RNA2{StrandType:as}$
target mRNA knockdown: 49%

RNA1{[fl2r](U)p.r(U)p.[fl2r](A)p.r(C)p.[fl2r](C)p.r(C)p.[fl2r](C)p.r(G)p.[fl2r](A)p.r(U)p.[fl2r](U)p.r(C)p.[fl2r](A)p.r(G)p.[fl2r](C)p.r(C)p.[fl2r](U)p.r(C)p.[fl2r](U)p.r(T)p.r(T)}|RNA2{r(A)p.r(G)p.r(A)p.r(G)p.r(G)p.r(C)p.r(U)p.r(G)p.r(A)p.r(A)p.r(U)p.r(C)p.r(G)p.r(G)p.r(G)p.r(G)p.r(U)p.r(A)p.r(A)p.r(T)p.r(T)}$$$RNA1{StrandType:ss}|RNA2{StrandType:as}$
target mRNA knockdown: 67%

RNA1{r(A)p.r(C)p.r(C)p.r(U)p.r(U)p.r(U)p.r(C)p.m(C)p.r(A)p.r(C)p.r(U)p.r(U)p.r(C)p.m(U)p.r(A)p.r(A)p.r(G)p.r(C)p.r(C)p.r(T)p.r(T)}|RNA2{r(G)p.r(G)p.r(C)p.r(U)p.m(U)p.r(A)p.r(G)p.r(A)p.r(A)p.r(G)p.m(U)p.r(G)p.r(G)p.r(A)p.r(A)p.r(A)p.r(G)p.r(G)p.r(U)p.r(T)p.r(T)}$$$RNA1{StrandType:ss}|RNA2{StrandType:as}$
target mRNA knockdown: 75%

RNA1{r(A)p.r(G)p.r(A)p.r(G)p.r(G)p.r(A)p.r(C)p.r(C)p.m(U)p.r(A)p.r(G)p.r(A)p.r(A)p.r(G)p.r(G)p.r(C)p.r(G)p.r(G)p.r(C)p.r(T)p.r(T)}|RNA2{r(G)p.r(C)p.r(C)p.r(G)p.r(C)p.r(C)p.m(U)p.m(U)p.r(C)p.m(U)p.r(A)p.r(G)p.r(G)p.m(U)p.r(C)p.r(C)p.m(U)p.r(C)p.m(U)p.r(T)p.r(T)}$$$RNA1{StrandType:ss}|RNA2{StrandType:as}$
target mRNA knockdown: 72%

RNA1{[fl2r](A)p.r(A)p.[fl2r](A)p.r(C)p.[fl2r](C)p.r(A)p.[fl2r](G)p.r(G)p.[fl2r](A)p.r(A)p.[fl2r](G)p.r(G)p.[fl2r](G)p.r(G)p.[fl2r](A)p.r(A)p.[fl2r](A)p.r(U)p.[fl2r](C)p.r(T)p.r(T)}|RNA2{r(G)p.[fl2r](A)p.r(U)p.r(U)p.r(U)p.r(C)p.r(C)p.r(C)p.r(C)p.r(U)p.r(U)p.r(C)p.r(C)p.r(U)p.r(G)p.r(G)p.r(U)p.r(U)p.r(U)p.r(T)p.r(T)}$$$RNA1{StrandType:ss}|RNA2{StrandType:as}$
target mRNA knockdown: 42%

RNA1{r(C)p.r(G)p.r(U)p.r(A)p.r(C)p.r(G)p.r(C)p.r(G)p.r(G)p.r(A)p.r(A)p.r(U)p.r(A)p.r(C)p.r(U)p.r(U)p.r(C)p.r(G)p.r(A)p.r(T)p.r(T)}|RNA2{[s4r](U)p.[s4r](C)p.[s4r](G)p.[s4r](A)p.r(A)p.r(G)p.r(U)p.r(A)p.r(U)p.r(U)p.r(C)p.r(C)p.r(G)p.r(C)p.r(G)p.r(U)p.r(A)p.r(C)p.r(G)p.r(T)p.r(T)}$$$RNA1{StrandType:ss}|RNA2{StrandType:as}$
target mRNA knockdown: 76.7%

RNA1{r(G)p.r(G)p.r(A)p.r(C)p.r(A)p.r(U)p.r(U)p.r(C)p.r(A)p.r(G)p.r(A)p.r(A)p.r(C)p.r(A)p.r(A)p.r(G)p.r(A)p.r(A)p.r(A)p.[una](U)p.[una](U)}|RNA2{r(U)p.r(U)p.r(U)p.[una](C)p.r(U)p.r(U)p.r(G)p.r(U)p.r(U)p.r(C)p.r(U)p.r(G)p.r(A)p.r(A)p.r(U)p.r(G)p.r(U)p.r(C)p.r(C)p.[una](U)p.[una](U)}$$$RNA1{StrandType:ss}|RNA2{StrandType:as}$
target mRNA knockdown: 50%

Reference: the OligoGym collection
